Results from article doi:10.1101/2021.04.08.439011v1 (biorxiv, 2021).
Where two headings read alike, the source gives them in different places.

What was measured:
PAK7 = PAK7 (Homo sapiens, UniProt Q9P286); conditions: 0.1 µM; binder
KIT = KIT (Homo sapiens, UniProt P10721); conditions: 0.1 µM, binder
BUB1 = BUB1 (Homo sapiens, UniProt O43683); conditions: 0.1 µM; binder
STK39 = STK39 (Homo sapiens, UniProt Q9UEW8); conditions: 0.1 µM; binder
MARK2 = MARK2 (Homo sapiens, UniProt Q7KZI7); conditions: 0.1 µM; binder
VEGFR2 = VEGFR2 (Homo sapiens, UniProt P35968); conditions: 0.1 µM; binder
PIM1 = PIM1 (Homo sapiens, UniProt P11309); conditions: 0.1 µM; binder
LATS1 = LATS1 (Homo sapiens, UniProt O95835); conditions: 0.1 µM; binder
TNNI3K = TNNI3K (Homo sapiens, UniProt Q59H18); conditions: 0.1 µM; binder
DAPK3 = DAPK3 (Homo sapiens, UniProt O43293); conditions: 0.1 µM; binder
ACVR1 = ACVR1 (Homo sapiens, UniProt Q04771); conditions: 0.1 µM; binder
ERK8 = ERK8 (Homo sapiens, UniProt Q8TD08); conditions: 0.1 µM; binder
PIK3CA(E542K) = PIK3CA(E542K) (Homo sapiens, UniProt P42336, E542K); conditions: 0.1 µM; binder
BMPR1A = BMPR1A (Homo sapiens, UniProt P36894); conditions: 0.1 µM; binder
ACVR1B = ACVR1B (Homo sapiens, UniProt P36896); conditions: 0.1 µM; binder
INSR = INSR (Homo sapiens, UniProt P06213); conditions: 0.1 µM; binder
INSR, sequence (P06213 whole entry): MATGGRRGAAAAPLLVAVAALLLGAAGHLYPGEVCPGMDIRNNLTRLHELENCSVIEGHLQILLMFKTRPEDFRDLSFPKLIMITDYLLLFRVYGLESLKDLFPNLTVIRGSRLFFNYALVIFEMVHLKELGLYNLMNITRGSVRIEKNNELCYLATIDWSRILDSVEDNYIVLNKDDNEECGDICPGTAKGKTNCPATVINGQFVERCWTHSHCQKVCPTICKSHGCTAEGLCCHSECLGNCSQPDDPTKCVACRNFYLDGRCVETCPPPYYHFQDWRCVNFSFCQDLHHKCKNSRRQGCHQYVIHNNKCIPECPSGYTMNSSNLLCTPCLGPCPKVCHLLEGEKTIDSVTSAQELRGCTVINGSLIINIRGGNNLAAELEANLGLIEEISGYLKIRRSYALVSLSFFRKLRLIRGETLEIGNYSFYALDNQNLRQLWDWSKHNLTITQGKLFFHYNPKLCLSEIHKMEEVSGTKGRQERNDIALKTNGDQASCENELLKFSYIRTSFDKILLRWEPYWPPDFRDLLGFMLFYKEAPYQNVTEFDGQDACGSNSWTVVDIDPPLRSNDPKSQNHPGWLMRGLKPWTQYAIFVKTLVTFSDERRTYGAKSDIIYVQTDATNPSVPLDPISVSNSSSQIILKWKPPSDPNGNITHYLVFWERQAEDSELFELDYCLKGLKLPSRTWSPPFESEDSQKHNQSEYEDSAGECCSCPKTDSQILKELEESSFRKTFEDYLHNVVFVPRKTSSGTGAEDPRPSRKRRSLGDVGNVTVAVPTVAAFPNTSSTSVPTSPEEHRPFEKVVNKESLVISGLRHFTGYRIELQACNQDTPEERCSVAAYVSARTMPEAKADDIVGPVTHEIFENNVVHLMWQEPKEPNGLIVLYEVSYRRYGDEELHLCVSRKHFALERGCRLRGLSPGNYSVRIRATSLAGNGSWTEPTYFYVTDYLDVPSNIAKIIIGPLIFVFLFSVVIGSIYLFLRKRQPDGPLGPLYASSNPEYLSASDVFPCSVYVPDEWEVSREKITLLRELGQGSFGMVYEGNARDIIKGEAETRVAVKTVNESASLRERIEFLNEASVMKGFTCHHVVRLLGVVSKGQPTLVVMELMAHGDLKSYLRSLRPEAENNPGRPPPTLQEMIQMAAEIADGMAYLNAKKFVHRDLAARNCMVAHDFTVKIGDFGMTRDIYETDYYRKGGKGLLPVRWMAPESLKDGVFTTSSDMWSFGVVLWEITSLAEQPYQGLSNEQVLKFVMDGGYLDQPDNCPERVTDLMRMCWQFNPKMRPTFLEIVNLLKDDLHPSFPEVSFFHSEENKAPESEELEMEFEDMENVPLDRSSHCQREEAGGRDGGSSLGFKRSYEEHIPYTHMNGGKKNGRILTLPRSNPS

IKK-beta = IKK-beta (Homo sapiens, UniProt O14920); conditions: 0.1 µM; binder
AURKC = AURKC (Homo sapiens, UniProt Q9UQB9); conditions: 0.1 µM; binder
AURKC, sequence (Q9UQB9 whole entry): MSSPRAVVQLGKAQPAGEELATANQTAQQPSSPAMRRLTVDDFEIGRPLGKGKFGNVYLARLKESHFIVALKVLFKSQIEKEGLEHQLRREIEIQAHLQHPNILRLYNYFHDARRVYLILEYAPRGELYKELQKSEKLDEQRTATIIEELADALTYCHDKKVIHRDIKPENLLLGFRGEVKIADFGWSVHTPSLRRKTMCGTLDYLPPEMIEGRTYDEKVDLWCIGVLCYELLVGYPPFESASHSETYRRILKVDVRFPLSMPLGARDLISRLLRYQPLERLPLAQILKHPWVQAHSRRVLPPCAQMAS

p38-delta = p38-delta (Homo sapiens, UniProt O15264); conditions: 0.1 µM; binder
VRK2 = VRK2 (Homo sapiens, UniProt Q86Y07); conditions: 0.1 µM; binder
VRK2, sequence (Q86Y07 whole entry): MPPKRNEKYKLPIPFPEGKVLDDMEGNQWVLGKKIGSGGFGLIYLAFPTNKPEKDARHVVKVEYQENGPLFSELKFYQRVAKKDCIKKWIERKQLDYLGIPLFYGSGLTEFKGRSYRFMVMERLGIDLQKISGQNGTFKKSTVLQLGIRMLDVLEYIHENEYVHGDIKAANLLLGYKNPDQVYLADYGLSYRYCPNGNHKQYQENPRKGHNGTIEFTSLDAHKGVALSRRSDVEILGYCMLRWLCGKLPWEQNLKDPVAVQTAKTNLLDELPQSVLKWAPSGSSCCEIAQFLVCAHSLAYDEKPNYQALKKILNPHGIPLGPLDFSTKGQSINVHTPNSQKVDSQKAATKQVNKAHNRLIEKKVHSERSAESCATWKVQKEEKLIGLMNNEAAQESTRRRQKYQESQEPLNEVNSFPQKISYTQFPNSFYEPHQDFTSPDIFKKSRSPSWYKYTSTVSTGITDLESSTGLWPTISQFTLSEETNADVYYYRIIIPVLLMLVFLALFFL

BMPR2 = BMPR2 (Homo sapiens, UniProt Q13873); conditions: 0.1 µM; binder
TIE1 = TIE1 (Homo sapiens, UniProt P35590); conditions: 0.1 µM; binder
MYLK = MYLK (Homo sapiens, UniProt Q15746); conditions: 0.1 µM; binder
ICK = ICK (Homo sapiens, UniProt Q9UPZ9); conditions: 0.1 µM; binder
PIK3CG = PIK3CG (Homo sapiens, UniProt P48736); conditions: 0.1 µM; binder
MST3 = MST3 (Homo sapiens, UniProt Q9Y6E0); conditions: 0.1 µM; binder
INSRR = INSRR (Homo sapiens, UniProt P14616); conditions: 0.1 µM; binder
PLK3 = PLK3 (Homo sapiens, UniProt Q9H4B4); conditions: 0.1 µM; binder
MLK1 = MLK1 (Homo sapiens, UniProt P80192); conditions: 0.1 µM; binder
MLK1, sequence (P80192 whole entry): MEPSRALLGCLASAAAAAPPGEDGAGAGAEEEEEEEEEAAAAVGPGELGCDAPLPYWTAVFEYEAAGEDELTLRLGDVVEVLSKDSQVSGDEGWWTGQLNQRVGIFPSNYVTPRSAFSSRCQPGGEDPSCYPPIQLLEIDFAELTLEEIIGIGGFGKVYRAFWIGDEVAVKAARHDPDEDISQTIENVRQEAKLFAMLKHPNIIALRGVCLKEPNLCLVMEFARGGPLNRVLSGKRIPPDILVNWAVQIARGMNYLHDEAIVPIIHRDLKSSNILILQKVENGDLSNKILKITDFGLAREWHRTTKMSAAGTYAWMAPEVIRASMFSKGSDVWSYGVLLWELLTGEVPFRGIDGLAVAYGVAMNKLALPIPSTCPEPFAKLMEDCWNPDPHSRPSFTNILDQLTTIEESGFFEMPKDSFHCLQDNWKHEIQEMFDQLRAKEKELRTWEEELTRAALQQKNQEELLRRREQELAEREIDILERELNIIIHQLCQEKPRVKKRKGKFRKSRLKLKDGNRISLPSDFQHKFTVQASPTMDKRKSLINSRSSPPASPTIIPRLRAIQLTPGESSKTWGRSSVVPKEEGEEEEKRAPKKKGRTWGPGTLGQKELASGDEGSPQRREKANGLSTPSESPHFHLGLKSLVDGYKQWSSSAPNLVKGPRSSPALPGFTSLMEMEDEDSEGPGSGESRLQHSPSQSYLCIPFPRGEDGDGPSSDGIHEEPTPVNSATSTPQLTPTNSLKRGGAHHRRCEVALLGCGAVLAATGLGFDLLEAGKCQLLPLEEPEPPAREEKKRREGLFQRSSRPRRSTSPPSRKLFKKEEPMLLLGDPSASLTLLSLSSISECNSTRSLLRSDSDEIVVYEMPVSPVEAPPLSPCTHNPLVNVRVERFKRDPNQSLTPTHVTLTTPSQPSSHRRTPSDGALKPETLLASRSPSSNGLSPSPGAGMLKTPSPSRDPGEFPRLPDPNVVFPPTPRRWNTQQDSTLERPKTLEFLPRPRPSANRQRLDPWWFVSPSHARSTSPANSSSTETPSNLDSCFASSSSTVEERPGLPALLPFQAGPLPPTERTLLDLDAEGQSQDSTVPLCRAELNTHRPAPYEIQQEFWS

BRAF(V600E) = BRAF(V600E) (Homo sapiens, UniProt P15056, V600E); conditions: 0.1 µM; binder
DMPK2 = DMPK2 (Homo sapiens, UniProt Q6DT37); conditions: 0.1 µM; binder

KIT, sequence (P10721 whole entry): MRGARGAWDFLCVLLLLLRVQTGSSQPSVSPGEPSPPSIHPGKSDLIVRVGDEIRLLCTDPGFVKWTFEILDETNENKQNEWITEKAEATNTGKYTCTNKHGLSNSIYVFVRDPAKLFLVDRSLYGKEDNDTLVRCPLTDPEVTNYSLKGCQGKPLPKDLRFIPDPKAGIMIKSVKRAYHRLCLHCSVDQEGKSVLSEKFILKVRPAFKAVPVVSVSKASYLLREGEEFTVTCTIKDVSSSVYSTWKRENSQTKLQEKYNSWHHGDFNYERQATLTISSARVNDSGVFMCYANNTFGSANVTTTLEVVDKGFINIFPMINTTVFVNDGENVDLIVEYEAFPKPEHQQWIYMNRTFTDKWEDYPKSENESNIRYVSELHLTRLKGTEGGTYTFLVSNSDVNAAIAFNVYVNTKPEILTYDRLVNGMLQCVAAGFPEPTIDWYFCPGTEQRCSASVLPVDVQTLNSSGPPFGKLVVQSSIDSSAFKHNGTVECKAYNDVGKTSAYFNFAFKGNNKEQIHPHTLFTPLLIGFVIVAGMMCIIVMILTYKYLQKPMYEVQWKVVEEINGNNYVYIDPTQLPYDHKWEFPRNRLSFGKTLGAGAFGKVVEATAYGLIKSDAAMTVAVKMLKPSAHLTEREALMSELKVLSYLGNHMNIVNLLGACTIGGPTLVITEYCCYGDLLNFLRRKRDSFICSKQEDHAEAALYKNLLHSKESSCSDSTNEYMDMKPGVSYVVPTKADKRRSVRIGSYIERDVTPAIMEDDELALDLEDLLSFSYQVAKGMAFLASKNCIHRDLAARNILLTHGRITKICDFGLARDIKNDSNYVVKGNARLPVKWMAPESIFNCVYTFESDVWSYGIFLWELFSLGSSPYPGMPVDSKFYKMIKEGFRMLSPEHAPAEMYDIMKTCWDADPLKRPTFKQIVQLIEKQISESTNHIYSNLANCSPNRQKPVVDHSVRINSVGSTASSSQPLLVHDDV
PAK7, sequence (Q9P286 whole entry): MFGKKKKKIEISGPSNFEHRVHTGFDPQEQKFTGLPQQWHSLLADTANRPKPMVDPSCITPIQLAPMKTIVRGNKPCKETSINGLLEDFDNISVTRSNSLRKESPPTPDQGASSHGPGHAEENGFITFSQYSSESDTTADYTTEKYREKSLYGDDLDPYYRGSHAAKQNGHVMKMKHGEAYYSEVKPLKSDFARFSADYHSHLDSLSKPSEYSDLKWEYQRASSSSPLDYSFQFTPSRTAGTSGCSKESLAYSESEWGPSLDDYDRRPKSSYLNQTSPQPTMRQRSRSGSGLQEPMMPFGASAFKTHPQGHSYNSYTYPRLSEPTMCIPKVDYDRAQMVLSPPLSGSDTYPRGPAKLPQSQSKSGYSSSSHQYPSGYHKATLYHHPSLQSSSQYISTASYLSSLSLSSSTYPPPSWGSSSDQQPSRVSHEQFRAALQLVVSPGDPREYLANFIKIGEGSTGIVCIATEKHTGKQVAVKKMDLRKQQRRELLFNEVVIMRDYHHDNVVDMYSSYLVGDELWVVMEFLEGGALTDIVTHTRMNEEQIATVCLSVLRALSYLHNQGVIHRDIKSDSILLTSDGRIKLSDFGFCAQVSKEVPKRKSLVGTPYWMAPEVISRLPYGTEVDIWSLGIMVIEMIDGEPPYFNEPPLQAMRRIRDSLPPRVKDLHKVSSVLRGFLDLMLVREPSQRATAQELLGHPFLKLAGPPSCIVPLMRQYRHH

`CNc1ncc2cc(-c3ccc(-c4cccc(C)n4)cc3Cl)c(=O)n(C[C@H]3OC[C@H](N)CO3)c2n1` [compound 6, G-5555] was tested, and the “Percent Control” value (PAK7) was 100%, the “Percent Control” value (KIT) was 100% and the “Percent Control” value (KIT; autoinhibited) was 82%. For the same compound, the “Percent Control” value (BUB1) was 100%, the “Percent Control” value (STK39) was 100% and the “Percent Control” value (MARK2) was 100%. For the same compound, the “Percent Control” value (VEGFR2) was 98%, the “Percent Control” value (PIM1) was 100% and the “Percent Control” value (LATS1) was 57%. For the same compound, the “Percent Control” value (TNNI3K) was 100%, the “Percent Control” value (DAPK3) was 100% and the “Percent Control” value (ACVR1) was 97%. For the same compound, the “Percent Control” value (ERK8) was 100%, the “Percent Control” value (PIK3CA(E542K)) was 89% and the “Percent Control” value (BMPR1A) was 90%. The “Percent Control” value (ACVR1B) was 100%, the “Percent Control” value (INSR) was 95% and the “Percent Control” value (IKK-beta) was 93%. The “Percent Control” value (AURKC) was 37%, the “Percent Control” value (p38-delta) was 86% and the “Percent Control” value (VRK2) was 94%. For the same compound, the “Percent Control” value (BMPR2) was 100%, the “Percent Control” value (TIE1) was 100% and the “Percent Control” value (MYLK) was 75%. For the same compound, the “Percent Control” value (ICK) was 100%, the “Percent Control” value (PIK3CG) was 87% and the “Percent Control” value (MST3) was 15%. The “Percent Control” value (INSRR) was 100%, the “Percent Control” value (PLK3) was 86% and the “Percent Control” value (MLK1) was 100%. The “Percent Control” value (BRAF(V600E)) was 100% and the “Percent Control” value (DMPK2) was 89%.
